pIC50: −log10 of the molar value.
Target: MAPK14 (human) (UniProt Q16539)
Assay: Inhibition of MAPK14 Kinase Activity

MAPK14 (human), sequence (Q16539 whole entry, looked up): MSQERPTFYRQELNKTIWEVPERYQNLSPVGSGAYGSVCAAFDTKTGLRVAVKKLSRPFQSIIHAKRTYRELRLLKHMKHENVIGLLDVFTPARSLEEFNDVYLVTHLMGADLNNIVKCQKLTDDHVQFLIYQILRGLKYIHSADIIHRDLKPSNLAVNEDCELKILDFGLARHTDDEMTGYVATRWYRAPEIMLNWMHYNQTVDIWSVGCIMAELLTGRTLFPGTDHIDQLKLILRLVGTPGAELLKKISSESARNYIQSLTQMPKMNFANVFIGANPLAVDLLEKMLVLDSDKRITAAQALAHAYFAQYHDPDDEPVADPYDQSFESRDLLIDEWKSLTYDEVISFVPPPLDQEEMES

Row | Compound | pIC50
1 | NC(=O)c1sc2c(ccc(=O)n2-c2ccccc2)c1Nc1cccc(Br)c1 | ≥ 6.00
2 | CCOC(=O)c1sc2c(ccc(=O)n2-c2ccccc2)c1Nc1ccc(F)cc1 | ≥ 6.00
3 | Cc1cc(Nc2c(C#N)sc3c2ccc(=O)n3-c2ccccc2)ccc1F | ≥ 6.00
4 | Cc1cc(Nc2c(C(N)=O)sc3c2ccc(=O)n3-c2ccccc2Cl)ccc1F | ≥ 6.00
5 | CCOC(=O)c1sc2c(ccc(=O)n2-c2ccc(F)cc2)c1Nc1ccc(F)c(C)c1 | ≥ 6.00
6 | Cc1cc(Nc2c(C(N)=O)sc3c2ccc(=O)n3-c2ccccc2C)ccc1F | ≥ 6.00
7 | CCOC(=O)c1sc2c(ccc(=O)n2-c2ccccc2)c1Nc1cccnc1 | ≥ 6.00
8 | NC(=O)c1sc2c(ccc(=O)n2-c2ccccc2)c1Nc1ccc(F)cc1 | ≥ 6.00
9 | NC(=O)c1sc2c(ccc(=O)n2-c2ccccc2)c1Nc1ccc(F)cc1F | ≥ 6.00
10 | CCN1CCN(C(=O)c2sc3c(ccc(=O)n3-c3ccccc3)c2Nc2ccccc2)CC1 | ≥ 6.00
11 | NS(=O)(=O)c1sc2c(ccc(=O)n2-c2ccccc2)c1Nc1ccc(F)cc1F | ≥ 6.00
12 | CCOC(=O)c1sc2c(ccc(=O)n2-c2ccccc2)c1Nc1ccc(C#N)c(Cl)c1 | ≥ 6.00
13 | COC(=O)NNC(=O)c1sc2c(ccc(=O)n2-c2ccccc2)c1Nc1ccc(F)cc1F | ≥ 6.00
14 | CCOC(=O)c1sc2c(ccc(=O)n2-c2ccc3[nH]ccc3c2)c1Nc1ccccc1 | ≥ 6.00
15 | Cc1cccc(Nc2c(C(N)=O)sc3c2ccc(=O)n3CC2CC2)c1C#N | ≥ 6.00
16 | CN(C)C(=O)c1sc2c(ccc(=O)n2-c2ccccc2)c1Nc1ccccc1 | ≥ 6.00

Row | Compound | pIC50
17 | Cc1cccc(Nc2c(C(N)=O)sc3c2ccc(=O)n3-c2ccccc2)n1 | ≥ 6.00
18 | NC(=O)c1sc2c(ccc(=O)n2Cc2ccccc2)c1Nc1ccccc1 | ≥ 6.00
19 | Cc1ccc(-n2c(=O)ccc3c(Nc4ccc(F)c(C)c4)c(C(N)=O)sc32)cc1 | ≥ 6.00
20 | CC(=O)c1sc2c(ccc(=O)n2-c2ccccc2)c1Nc1ccccc1 | ≥ 6.00
21 | O=C(c1sc2c(ccc(=O)n2-c2ccccc2)c1Nc1ccc(F)cc1)N1CCCC1 | ≥ 6.00
22 | N#Cc1cccc(Nc2c(C(=O)N3CCCC3)sc3c2ccc(=O)n3-c2ccccc2)c1 | ≥ 6.00
23 | NNC(=O)c1sc2c(ccc(=O)n2-c2ccccc2)c1Nc1ccccc1 | ≥ 6.00
24 | CCc1cccc(Nc2c(C(N)=O)sc3c2ccc(=O)n3-c2ccccc2)c1 | ≥ 6.00
25 | Cc1ccc(C#N)c(Nc2c(C(N)=O)sc3c2ccc(=O)n3-c2ccccc2)c1 | ≥ 6.00
26 | CCOC(=O)c1sc2c(ccc(=O)n2CC2CC2)c1Nc1ccc(F)cc1F | ≥ 6.00
27 | NC(=O)c1sc2c(ccc(=O)n2-c2ccccc2)c1Nc1ccccc1OC(F)(F)F | ≥ 6.00
28 | N#Cc1sc2c(ccc(=O)n2-c2cccnc2)c1Nc1ccccc1 | ≥ 6.00
29 | N#Cc1sc2c(ccc(=O)n2-c2ccccc2)c1Nc1cccc(Cl)c1 | ≥ 6.00
30 | Cc1ccc(Nc2c(C(N)=O)sc3c2ccc(=O)n3-c2ccccc2)cc1Br | ≥ 6.00
31 | CCOC(=O)c1sc2c(ccc(=O)n2-c2ccc(OCCn3ccnc3C)cc2)c1Nc1ccc(F)cc1F | ≥ 6.00
